Source: the supplement of paper PMC10307832

How the values were obtained:
Assay in all cases: relative viability (nuclei count vs DMSO), 5 days (fraction); higher = more cells survive
[1] = compound: CS(=O)(=O)c1ccc(-c2cnc(N)c(C(=O)Nc3ccccc3)n2)cc1 [VE-821] + CC(=O)c1c(C)c2cnc(Nc3ccc(N4CCNCC4)cn3)nc2n(C2CCCC2)c1=O [Palbociclib] (partner 0.5 µM)
Outline: (§1)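 For relative viability, nuclei counts in treated wells were divided by those in vehicle wells. Lung cancer cell lines had been pin-tool dosed in 1536-well plates the day after seeding and cultured for 5 days, then fixed and stained in one step (final 0.05% Triton X-100, 1% formaldehyde, 1 ug/ml Hoechst) and imaged at 4×. Doses were one drug alone or a fixed anchor-drug dose plus five library-drug doses (not always all listed) in √10 steps, and values are duplicate-plate medians.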

[2] = compound: CS(=O)(=O)c1ccc(-c2cnc(N)c(C(=O)Nc3ccccc3)n2)cc1 [VE-821] + Cc1nc(Nc2ncc(C(=O)Nc3c(C)cccc3Cl)s2)cc(N2CCN(CCO)CC2)n1 [Dasatinib] (partner 0.075 µM)
Outline: as §1

[3] = compound: CS(=O)(=O)c1ccc(C(=O)Nc2ccc(Cl)c(-c3ccccn3)c2)c(Cl)c1 [Vismodegib] + COc1cccc2cc(-c3nc([C@H]4CC[C@H](C(=O)O)CC4)n4ncnc(N)c34)[nH]c12 [OSI-027] (partner 0.5 µM)
Outline: as §1

[4] = compound: CS(=O)(=O)c1ccc(C(=O)Nc2ccc(Cl)c(-c3ccccn3)c2)c(Cl)c1 [Vismodegib] + NC(=O)Nc1cc(-c2cccc(F)c2)sc1C(=O)N[C@H]1CCCNC1 [AZD7762] (partner 0.2 µM)
Outline: as §1

Row | Cell Line | relative viability ([1]; first compound 0.08 µM) | relative viability ([1]; first compound 0.253 µM) | relative viability ([1]; first compound 0.8 µM) | relative viability ([1]; first compound 2.53 µM) | relative viability ([1]; first compound 8 µM) | relative viability ([2]; first compound 0.08 µM) | relative viability ([2]; first compound 0.253 µM) | relative viability ([2]; first compound 0.8 µM) | relative viability ([2]; first compound 2.53 µM) | relative viability ([2]; first compound 8 µM) | relative viability ([3]; first compound 0.08 µM) | relative viability ([3]; first compound 0.253 µM) | relative viability ([3]; first compound 0.8 µM) | relative viability ([3]; first compound 2.53 µM) | relative viability ([3]; first compound 8 µM) | relative viability ([4]; first compound 0.08 µM) | relative viability ([4]; first compound 0.253 µM) | relative viability ([4]; first compound 0.8 µM) | relative viability ([4]; first compound 2.53 µM) | relative viability ([4]; first compound 8 µM)
1 | HCC-827 | 0.515 | 0.516 | 0.405 | 0.531 | 0.522 | 0.322 | 0.294 | 0.289 | 0.421 | 0.262 | 0.759 | 0.708 | 0.726 | 0.767 | 0.789 | 0.278 | 0.183 | 0.258 | 0.168 | 0.169
2 | HOP-62 | 0.508 | 0.459 | 0.471 | 0.463 | 0.461 | 0.708 | 0.656 | 0.651 | 0.858 | 0.684 | 0.841 | 0.812 | 0.793 | 0.8 | 0.899 | 0.591 | 0.41 | 0.798 | 0.691 | 0.423
3 | LC-2-ad | 0.557 | 0.473 | 0.559 | 0.504 | 0.514 | 0.856 | 0.607 | 0.679 | 0.586 | 0.404 | 0.975 | 0.786 | 0.824 | 0.809 | 0.676 | 0.823 | 0.822 | 0.84 | 0.864 | 0.751
4 | LCLC-97TM1 | 0.257 | 0.238 | 0.25 | 0.267 | 0.255 | 1.1 | 0.763 | 0.756 | 0.838 | 0.639 | 0.673 | 0.522 | 0.525 | 0.507 | 0.523 | 0.292 | 0.262 | 0.327 | 0.297 | 0.286
5 | LCLC-103H | 0.552 | 0.513 | 0.524 | 0.523 | 0.448 | 0.418 | 0.525 | 0.31 | 0.474 | 0.513 | 0.462 | 0.461 | 0.364 | 0.476 | 0.476 | 0.752 | 0.796 | 0.735 | 0.774 | 0.834
6 | LK-2 | 0.762 | 0.737 | 0.781 | 0.563 | 0.639 | 0.269 | 0.26 | 0.273 | 0.352 | 0.38 | 0.264 | 0.187 | 0.181 | 0.182 | 0.226 | 0.401 | 0.479 | 0.419 | 0.387 | 0.447
7 | NCI-H520 | 0.243 | 0.242 | 0.177 | 0.269 | 0.188 | 0.232 | 0.23 | 0.166 | 0.298 | 0.165 | 0.284 | 0.227 | 0.298 | 0.314 | 0.309 | – | – | – | – | –
8 | NCI-H596 | – | – | – | – | – | 0.545 | 0.653 | 0.643 | 0.679 | 0.615 | 0.791 | 0.634 | 0.672 | 0.734 | 0.781 | 1.07 | 1.04 | 0.954 | 1.11 | 1.08
9 | NCI-H661 | 0.409 | 0.453 | 0.415 | 0.4 | 0.413 | 0.934 | 0.668 | 0.884 | 0.865 | 0.434 | 0.735 | 0.705 | 0.723 | 0.738 | 0.731 | – | – | – | – | –
10 | NCI-H1563 | – | – | – | – | – | 0.449 | 0.483 | 0.405 | 0.456 | 0.453 | 0.757 | 0.734 | 0.767 | 0.694 | 0.809 | – | – | – | – | –
11 | NCI-H1623 | – | – | – | – | – | 0.565 | 0.53 | 0.518 | 0.525 | 0.606 | 0.476 | 0.415 | 0.461 | 0.419 | 0.456 | – | – | – | – | –
12 | NCI-H1648 | 0.269 | – | 0.252 | 0.265 | 0.349 | – | – | – | – | – | 0.22 | 0.27 | 0.29 | 0.258 | 0.207 | 0.811 | 0.717 | 0.833 | 0.693 | 0.696
13 | NCI-H1650 | 0.342 | 0.324 | 0.329 | 0.4 | 0.336 | 0.312 | 0.322 | 0.28 | 0.255 | 0.211 | 0.652 | 0.562 | 0.577 | 0.555 | 0.729 | – | – | – | – | –
14 | NCI-H1703 | – | – | – | – | – | – | – | – | – | – | – | – | – | – | – | 0.139 | – | 0.134 | 0.104 | 0.152
15 | NCI-H2009 | 0.204 | 0.215 | 0.234 | 0.18 | 0.188 | 0.332 | 0.263 | 0.212 | 0.26 | 0.16 | 0.688 | 0.619 | 0.612 | 0.608 | 0.738 | – | – | – | – | –
16 | NCI-H2023 | 0.452 | 0.346 | 0.317 | 0.297 | 0.124 | 0.681 | 0.432 | 0.458 | 0.373 | 0.13 | 0.464 | 0.354 | 0.411 | 0.322 | 0.478 | – | – | – | – | –
17 | NCI-H2228 | 0.885 | 0.762 | 0.981 | 1.03 | 0.547 | 0.602 | 0.457 | 0.621 | 0.528 | 0.31 | 0.7 | 0.636 | 0.587 | 0.532 | 0.467 | – | – | – | – | –
18 | SK-LU-1 | 0.408 | 0.424 | 0.323 | 0.376 | 0.261 | 0.17 | 0.19 | 0.163 | 0.16 | 0.12 | 0.414 | 0.39 | 0.384 | 0.401 | 0.345 | – | – | – | – | –
19 | SK-MES-1 | 0.339 | 0.345 | 0.323 | 0.296 | 0.287 | 0.389 | 0.379 | 0.274 | 0.332 | 0.199 | 0.729 | 0.576 | 0.598 | 0.59 | 0.577 | – | – | – | – | –
20 | SW 1573 | 0.419 | 0.439 | 0.449 | 0.353 | 0.315 | 0.49 | 0.573 | 0.551 | 0.503 | 0.218 | 0.742 | 0.595 | 0.682 | 0.521 | 0.574 | – | – | – | – | –
